Biological target: T1, Ubiquitin carboxyl-terminal hydrolase 28 (Homo sapiens, UniProt Q96RU2)
T1 sequence (Q96RU2 whole entry): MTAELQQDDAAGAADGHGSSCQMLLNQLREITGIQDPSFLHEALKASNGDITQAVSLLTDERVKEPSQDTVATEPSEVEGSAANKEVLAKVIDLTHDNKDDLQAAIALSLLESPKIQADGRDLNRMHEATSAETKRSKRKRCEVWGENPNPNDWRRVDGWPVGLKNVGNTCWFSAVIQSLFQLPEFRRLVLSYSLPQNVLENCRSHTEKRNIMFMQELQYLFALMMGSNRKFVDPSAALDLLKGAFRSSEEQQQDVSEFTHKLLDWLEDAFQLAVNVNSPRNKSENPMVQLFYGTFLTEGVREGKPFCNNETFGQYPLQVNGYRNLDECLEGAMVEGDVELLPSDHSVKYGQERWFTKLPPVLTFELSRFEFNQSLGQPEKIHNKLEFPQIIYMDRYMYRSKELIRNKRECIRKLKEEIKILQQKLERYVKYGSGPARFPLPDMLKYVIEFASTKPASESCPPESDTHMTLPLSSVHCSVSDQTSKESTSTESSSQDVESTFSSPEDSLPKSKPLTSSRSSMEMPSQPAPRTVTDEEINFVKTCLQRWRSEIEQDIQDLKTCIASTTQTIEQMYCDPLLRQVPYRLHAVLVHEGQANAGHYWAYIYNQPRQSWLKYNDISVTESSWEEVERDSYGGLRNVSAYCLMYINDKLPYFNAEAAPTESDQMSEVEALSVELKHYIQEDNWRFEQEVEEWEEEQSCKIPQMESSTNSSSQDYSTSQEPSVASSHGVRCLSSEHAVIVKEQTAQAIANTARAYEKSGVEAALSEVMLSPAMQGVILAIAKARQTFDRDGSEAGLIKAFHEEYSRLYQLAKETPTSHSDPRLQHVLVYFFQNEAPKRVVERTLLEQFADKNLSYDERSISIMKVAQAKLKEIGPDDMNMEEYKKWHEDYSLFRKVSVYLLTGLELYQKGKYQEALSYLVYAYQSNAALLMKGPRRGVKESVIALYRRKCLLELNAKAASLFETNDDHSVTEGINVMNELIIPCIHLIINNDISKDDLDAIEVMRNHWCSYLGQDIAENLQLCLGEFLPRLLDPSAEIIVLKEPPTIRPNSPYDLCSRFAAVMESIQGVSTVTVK
Experiment: Biochemical Assay: Ubiquitin-Rhodamine 110 Assay for USP28 Activity: Each assay was performed in a final volume of 20 μL in assay buffer containing 20 mM Tris-HCl (pH 8.0, (1M Tris-HCl, pH 8.0 solution; Corning 46-031-CM)), 2 mM CaCl2 (1M Calcium Chloride solution; Sigma #21114) 2 mM BME (2-Mercaptoethanol; Sigma 63689-25ML-F), 0.01% Prionex (0.22 μM filtered, Sigma #G-0411), and 0.01% Triton X-100. Stock compound solutions were stored at −20° C. as 10 mM in DMSO. Up to 1 month prior to the assay, 2 mM test compounds were pre-dispensed into assay plates (Black, low volume; Corning #3820) and frozen at −20° C. Prestamped assay plates were allowed to come to room temperature on the day of the assay. For the screen, 100 nL of 2 mM was pre-dispensed for a final screening concentration of 10 μM (DMSO(fc)=0.5%). […]

Cc1cnc2c(N)c(C(=O)NCCc3ccc(N4CC5CCC(C4)N5)cc3)sc2n1
IC50: < 200 nM

From ChEMBL document CHEMBL5729103, “Thienopyrazine carboxamides as ubiquitin-specific protease inhibitors” (2022)
